Experimental findings from article PMC10057847, “Precision engineering of biological function with large-scale measurements and machine learning” (PLOS ONE, 2023) are described below.

Assay in all cases: In vivo IPTG dose-response of LacI-regulated eYFP expression from the pVER plasmid in E. coli grown in rich M9 medium at 37 °C, measured by flow cytometry and fitted to the Hill equation by Bayesian MCMC (posterior mean and SD).
Holding throughout (format): cell-based, E. coli MG1655Δlac
Holding throughout (details): read-out: log_ec50 (base-10 logarithm of EC50 in μmol/L) (converted)
In general terms: A flow cytometer gives signals particle by particle.

The target in one assay is T1, pVER-IPTG-078 (Escherichia coli, UniProt P03023, A110V/A72V/N142D/S322L).
T1 construct: gene lacI; LacI expressed from pVER plasmid
On the procedure:
(§1) All reported measurements were completed using E. coli strain MG1655Δlac, in which the lactose operon of E. coli strain MG1655 (ATCC #47076) was replaced with the bleomycin resistance gene from Streptoalloteichus hindustanus (Shble).
(§2) Dose-response curves were measured with flow cytometry using E. coli MG1655Δlac transformed with variants of the pVER plasmid, described previously. The plasmid contained different variants of the lacI coding DNA sequence (CDS), as described in the text, and an expression cassette with enhanced yellow fluorescent protein (eYFP) under the control of the lactose operator (lacO). The lacI CDS was verified with Sanger sequencing for each variant.
(§3) All cultures were grown in a rich M9 media (3 g/L KH2PO4, 6.78 g/L Na2HPO4, 0.5 g/L NaCl, 1 g/L NH4Cl, 0.1 mmol/L CaCl2, 2 mmol/L MgSO4, 4% glycerol, and 20 g/L casamino acids) supplemented with 50 μg/mL kanamycin.
(§4) • Prepare first growth plate, with 450 μL rich M9 media in each well. • Pipette 50 μL of starter culture into each well in rows B-G of the plate (leaving rows A and H blank). • Use a E. coli containing a different lacI variant for each row. • Seal first growth plate with gas permeable membrane. • Incubate plate in plate reader for 12 h to 14 h. • Grow to stationary to provide a reproducible starting point for each measurement. • Prepare second growth plate with 490 μL in each well. • Dilution series of isopropyl-β-D-thiogalactopyranoside (IPTG): 11 columns of a 2-fold serial dilution gradient and one column with zero IPTG. • Ten minutes before the end of the incubation cycle for the first growth plate, move the second growth plate to a heated station set to 47°C. • Ten minutes at 47°C will pre-warm the media in the plate to 37°C. • De-seal the first growth plate (after completion of the stationary-phase incubation cycle). • Pipette 10 μL from each well in the first growth plate to the corresponding well in the second growth plate. • 50-fold dilution; using a 96-channel pipetting head. • Seal second growth plate with gas permeable membrane. • Incubate second growth plate in plate reader for 160 minutes. • Sufficient for approximately 10-fold increase in cell density or 3.3 doublings. • Prepare third growth plate with 450 μL in each well. • Same dilution series as in second growth plate. • Ten minutes before the end of the incubation cycle for the second growth plate, move the third growth plate to a heated station set to 47°C. • De-seal the second growth plate (after completion of the 160 minute incubation cycle). • Pipette 50 μL from each well in the second growth plate to the corresponding well in the third growth plate. • 10-fold dilution; using a 96-channel pipetting head. • Seal third growth plate with gas permeable membrane. • Incubate third growth plate in plate reader for 160 minutes. • Prepare flow cytometry sample plate (round-bottom 96-well plate, Falcon, 351177). • Each well in rows B-G: 195 μL 1x PBS with 170 μg/mL chloramphenicol (Fisher BioReagents, cat. #BP904-100). • Rows A and H: PBS blanks, focusing fluid blanks, and space for calibration bead sample • At the end of the incubation cycle for the third growth plate, pipette 5 μL from each well to the corresponding well in the flow cytometry sample plate.
(§5) Flow cytometry samples were measured with an Attune NxT flow cytometer equipped with a 96-well plate autosampler using a 488 nm excitation laser and a 530 nm ± 15 nm bandpass emission filter. Blank samples were measured with each batch of cell measurements, and an automated gating algorithm was used to discriminate cell events from non-cell events. Fluorescence calibration beads (Spherotech, part no. RCP-30-20A) were also measured with each batch of samples to facilitate calibration of flow cytometry data to molecules of equivalent fluorescein (MEF). […]

The next assay deals with T2, pVER-IPTG-081 (Escherichia coli, UniProt P03023, M347V/P285S/S308P/V301M).
T2 construct: gene lacI; LacI expressed from pVER plasmid
On the procedure:
as §1, §2, §3, §4, §5

In another assay the target is T3, pVER-IPTG-080 (Escherichia coli, UniProt P03023, A109E/D165V/E259G/G166A/R255C).
T3 construct: gene lacI; LacI expressed from pVER plasmid
On the procedure:
as §1, §2, §3, §4, §5

The target of a further assay is T4, pVER-IPTG-002(S70R) (Escherichia coli, UniProt P03023, M254I/S158R/S70R/T154I/V238D/V264I/V96E).
T4 construct: gene lacI; LacI expressed from pVER plasmid
As to the method: as §1, §2, §3, §4, §5

Assay [1] has as its target T5, pVER-IPTG-075 (also pVER-IPTG-138) (Escherichia coli, UniProt P03023, A81S/E100K/L148V/Q60R/S221N/S28G/T34M/V271L).
T5 construct: gene lacI; LacI expressed from pVER plasmid
As to the method:
as §1, §2, §3, §4, §5

The target of a further assay is T6, pVER-IPTG-076 (Escherichia coli, UniProt P03023, A337S/L198Q/S102R/S260F/S93N/V99E).
T6 construct: gene lacI; LacI expressed from pVER plasmid
As to the method:
as §1, §2, §3, §4, §5

The target of another assay is T7, pVER-IPTG-079 (Escherichia coli, UniProt P03023, A116T/S190C/T141I/V99E).
T7 construct: gene lacI; LacI expressed from pVER plasmid
On the procedure:
as §1, §2, §3, §4, §5

The next assay deals with T8, pVER-IPTG-008 (Escherichia coli, UniProt P03023, A266T/I237T/I289F/S61L/T258S).
T8 construct: gene lacI; LacI expressed from pVER plasmid; stop codon at 351
On the procedure:
as §1, §2, §3, §4, §5

For the next assay, the target named is T9, pVER-IPTG-009 (Escherichia coli, UniProt P03023, I210L/I283N/M254T/N157D/P76Q/Q181H/V150A).
T9 construct: gene lacI; LacI expressed from pVER plasmid
As to the method: as §1, §2, §3, §4, §5

The target of the next assay is T10, pVER-IPTG-082 (Escherichia coli, UniProt P03023, G200A/Q209R/Q317L/R263H/S190C/V94M).
T10 construct: gene lacI; LacI expressed from pVER plasmid
As to the method: as §1, §2, §3, §4, §5

The next assay addresses T11, pVER-IPTG-004 (Escherichia coli, UniProt P03023, A87P/E357G/V301M).
T11 construct: gene lacI; LacI expressed from pVER plasmid
As to the method:
as §1, §2, §3, §4, §5

In a further assay the target is T12, pVER-IPTG-004(V136E) (Escherichia coli, UniProt P03023, A87P/E357G/V136E/V301M).
T12 construct: gene lacI; LacI expressed from pVER plasmid
As to the method:
as §1, §2, §3, §4, §5

Values joined by “and” are separate entries in the source; they are usually repeats but may differ in a detail not shown here. Identical values can stand only once.

T5 sequence (P03023 whole entry S28G/T34M/Q60R/A81S/E100K/L148V/S221N/V271L): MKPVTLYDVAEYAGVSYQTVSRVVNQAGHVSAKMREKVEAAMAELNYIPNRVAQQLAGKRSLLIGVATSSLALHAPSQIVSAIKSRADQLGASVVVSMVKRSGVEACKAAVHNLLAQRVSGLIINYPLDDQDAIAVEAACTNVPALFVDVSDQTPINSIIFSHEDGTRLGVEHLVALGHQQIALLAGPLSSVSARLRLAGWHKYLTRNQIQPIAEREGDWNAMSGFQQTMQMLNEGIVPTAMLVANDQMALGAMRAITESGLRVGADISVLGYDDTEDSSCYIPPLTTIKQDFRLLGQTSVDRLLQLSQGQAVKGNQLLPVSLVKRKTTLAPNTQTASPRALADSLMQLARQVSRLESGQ
T9 sequence (P03023 whole entry P76Q/V150A/N157D/Q181H/I210L/M254T/I283N): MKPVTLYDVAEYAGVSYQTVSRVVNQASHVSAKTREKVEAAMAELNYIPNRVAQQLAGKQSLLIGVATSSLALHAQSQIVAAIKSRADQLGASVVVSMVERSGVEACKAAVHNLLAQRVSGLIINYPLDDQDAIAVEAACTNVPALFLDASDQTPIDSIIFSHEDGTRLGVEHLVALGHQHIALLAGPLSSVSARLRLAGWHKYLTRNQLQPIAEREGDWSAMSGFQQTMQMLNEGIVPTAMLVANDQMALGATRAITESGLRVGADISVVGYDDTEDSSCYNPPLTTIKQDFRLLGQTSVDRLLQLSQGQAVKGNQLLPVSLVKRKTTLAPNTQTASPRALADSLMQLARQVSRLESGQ
T1 sequence (P03023 whole entry A72V/A110V/N142D/S322L): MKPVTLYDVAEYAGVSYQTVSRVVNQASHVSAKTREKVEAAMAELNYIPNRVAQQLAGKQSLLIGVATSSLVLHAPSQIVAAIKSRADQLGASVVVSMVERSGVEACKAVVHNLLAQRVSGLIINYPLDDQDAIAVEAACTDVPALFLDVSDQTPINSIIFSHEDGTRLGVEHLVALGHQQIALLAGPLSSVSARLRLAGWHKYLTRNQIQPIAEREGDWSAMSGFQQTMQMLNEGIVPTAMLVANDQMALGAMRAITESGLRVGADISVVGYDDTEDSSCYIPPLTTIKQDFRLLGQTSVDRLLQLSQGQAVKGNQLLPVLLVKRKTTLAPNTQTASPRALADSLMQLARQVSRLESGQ
T8 sequence (P03023 1-350 S61L/I237T/T258S/A266T/I289F): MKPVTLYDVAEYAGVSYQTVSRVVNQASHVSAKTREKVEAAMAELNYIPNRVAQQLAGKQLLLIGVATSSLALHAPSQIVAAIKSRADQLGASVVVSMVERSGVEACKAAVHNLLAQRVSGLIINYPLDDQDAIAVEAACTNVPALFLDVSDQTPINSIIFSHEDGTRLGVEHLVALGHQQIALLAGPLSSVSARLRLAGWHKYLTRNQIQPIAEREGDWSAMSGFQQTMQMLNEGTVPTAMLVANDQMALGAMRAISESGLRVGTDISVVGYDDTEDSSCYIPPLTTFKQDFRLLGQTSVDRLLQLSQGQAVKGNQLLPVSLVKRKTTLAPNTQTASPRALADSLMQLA
T6 sequence (P03023 whole entry S93N/V99E/S102R/L198Q/S260F/A337S): as the sequence (P03023 whole entry A72V/A110V/N142D/S322L) above, with V72A, S93N, V99E, S102R, V110A, D142N, L198Q, S260F, L322S, A337S counted along it
T12 sequence (P03023 whole entry A87P/V136E/V301M/E357G): as the sequence (P03023 whole entry A72V/A110V/N142D/S322L) above, with V72A, A87P, V110A, V136E, D142N, V301M, L322S, E357G counted along it
T2 sequence (P03023 whole entry P285S/V301M/S308P/M347V): as the sequence (P03023 whole entry A72V/A110V/N142D/S322L) above, with V72A, V110A, D142N, P285S, V301M, S308P, L322S, M347V counted along it
T10 sequence (P03023 whole entry V94M/S190C/G200A/Q209R/R263H/Q317L): as the sequence (P03023 whole entry A72V/A110V/N142D/S322L) above, with V72A, V94M, V110A, D142N, S190C, G200A, Q209R, R263H, Q317L, L322S counted along it
T7 sequence (P03023 whole entry V99E/A116T/T141I/S190C): as the sequence (P03023 whole entry A72V/A110V/N142D/S322L) above, with V72A, V99E, V110A, A116T, T141I, D142N, S190C, L322S counted along it
T11 sequence (P03023 whole entry A87P/V301M/E357G): as the sequence (P03023 whole entry A72V/A110V/N142D/S322L) above, with V72A, A87P, V110A, D142N, V301M, L322S, E357G counted along it
T3 sequence (P03023 whole entry A109E/D165V/G166A/R255C/E259G): as the sequence (P03023 whole entry A72V/A110V/N142D/S322L) above, with V72A, A109E, V110A, D142N, D165V, G166A, R255C, E259G, L322S counted along it
T4 sequence (P03023 whole entry S70R/V96E/T154I/S158R/V238D/M254I/V264I): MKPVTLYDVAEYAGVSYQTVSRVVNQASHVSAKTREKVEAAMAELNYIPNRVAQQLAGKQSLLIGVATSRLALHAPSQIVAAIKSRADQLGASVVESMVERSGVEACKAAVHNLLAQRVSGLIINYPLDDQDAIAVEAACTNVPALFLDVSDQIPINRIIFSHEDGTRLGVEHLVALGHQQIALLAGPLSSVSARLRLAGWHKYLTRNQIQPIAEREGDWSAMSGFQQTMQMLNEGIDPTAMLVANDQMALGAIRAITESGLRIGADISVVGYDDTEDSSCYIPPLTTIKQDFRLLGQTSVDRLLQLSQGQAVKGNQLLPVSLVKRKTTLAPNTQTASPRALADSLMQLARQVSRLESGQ

On to `CC(C)S[C@@H]1O[C@H](CO)[C@H](O)[C@H](O)[C@H]1O` [IPTG, isopropyl-β-D-thiogalactopyranoside], for which the EC50 on pVER-IPTG-078 was 3.61 µmol/L; on pVER-IPTG-081, 8.46 µmol/L; on pVER-IPTG-080, 6.96 µmol/L; at pVER-IPTG-002(S70R), 4690 µmol/L; in [1] it was 3 µmol/L and 2.99 µmol/L; at pVER-IPTG-076, 4.31 µmol/L. Besides, the EC50 on pVER-IPTG-079 is 7.24 µmol/L; at pVER-IPTG-008 it was 77.3 µmol/L; on pVER-IPTG-009, 169 µmol/L; on pVER-IPTG-082, 27.8 µmol/L; on pVER-IPTG-004, 234 µmol/L; on pVER-IPTG-004(V136E), 421000 µmol/L.
